Experiments:
[1] = system: HeLa S3 cells undergoing apoptosis; assay: Fluorescent microscopy of binding to cultured HeLa cells undergoing apoptosis; format: cell-based; details: aged HeLa culture, fluorescence, FIG. 3
Description: HeLa S3 cells (ATCC CCL-2.2) were grown in Dulbecco's modified Eagle's medium (DMEM), supplemented with 2 mM of L-glutamine; 100 units/ml of penicillin; 100 μg/ml of streptomycin; 12.5 units/ml of nystatin and 10% of fetal calf serum (FCS). Cells were seeded at a density of 5×10^6 cells/plate, on a […] culture plates, in a volume of 10 ml, and were allowed to age by incubating the culture for 96 hours without exchange of the growth-medium. As a result, a marked percentage of the cells became apoptotic. Cells were harvested using a cell scraper, separated to single cells by passage through a syringe with a 18 G needle, and re-suspended at a density of 10^6 cells/ml in PBS buffer at pH=7.4. As was shown before NST 203 including a dansylamide group which enables the visualization of the fluorescence of a single cell.

[2] = system: brain and spinal cord white matter in EAE; assay: Autoradiography imaging of experimental autoimmune encephalomyelitis (EAE); format: in vivo, C3H.SW/C57/bl female mice; details: FIG. 12
colon carcinoma tumors [3] = assay: Uptake into treated colon carcinoma tumors compared with tumor volume; format: in vivo, Balb/c male mice
Description: Colon carcinoma model was established in the abdomen of Balb/c male mice, as described in Example No. 10. At day 12-14 when tumor size was 6-8 mm in diameter, mice were injected intravenously with doxorubicin. A total of 2 doses of doxorubicin were given, separated by 3 days interval (each dose was 20 mg/Kg).
Two days after the second doxorubicin injection, mice were injected i.v. with 10 μCi of ^3H-NST200 in a volume of 0.2 ml saline. Four hours following ^3H-NST200 injection, mice were sacrificed by pental overdosing. Tumors were collected in ependorff tubes, weighted and frozen in −20° C.
Tumor lysis was performed using SOLVABLE™ reagent (GNE9100, Packard Bioscience) in a ratio of 1 ml reagent per 150 mg of tumor tissue at 60° C. in 20 ml scintillation glass vials. Following 2-4 hours, 1 ml from each tissue extract was transferred to a glass scintillation vial. To reduce color quenching problems, samples were treated with 0.4 ml of 30% H2O2 in the presence of 0.066M EDTA. […] The vials were incubated for 1 hr at RT, and than analyzed in a β-counter (TRI-CARB 2100TR, liquid scintillation analyzer, Packard Bioscience). Values of percents of injected dose (% ID/g tissue) were calculated for each sample. […] The uptake values of NST200 after each dose were correlated with tumor volume, which were calculated by the formula (assuming spherical tumors) V=πD^3/6, where D is the average tumor diameter.

[4] = system: Murine colon carcinoma cells (CT-26) tumors; assay: Uptake into colon carcinoma tumors: effect of chemotherapy (scintillation counting); format: in vivo, Balb/C mice
Description: Murine colon carcinoma cells (CT-26) (ATCC CRL-2638) were maintained in RPMI (Gibco, UK), 2 mM of L-glutamine; 100 units/ml of penicillin; 100 μg/ml of streptomycine; 12.5 units/ml nystatin; and 10% heated inactivation FCS. Studies were carried out in adult male Balb/C mice 8-10 weeks old (weighting 20-25gr).
Cells were trypsinized, washed twice with HBS (140 mM NaCl; […], PH 7.4) and than centrifuged (5 min, 1000 rpm, 4° C.) and concentrated into 2×10^6 cells/ml in a mixture of (2%) methyl cellulose and saline (1:3). A volume of 0.2 ml of the above solution (containing 4×10^5 cells/dose) was injected subcutaneously into the mice abdomen in both sides while mice were anaesthetized. Anaesthetic stock solution was prepared from 0.85 ml Ketamine (100 mg/ml)+0.15 ml Xilazine (2%) diluted 1:10. 0.1 ml of diluted solution was injected (i.p.) per 10 gr body weight.
Mice were examined daily for palpable tumor formation. 7-10 days after tumor injection small tumors were visible.
Uptake of ^3H-NST200 into tumors was measured following treatment of colon carcinoma tumors with i.v. injection of two doses of doxorubicin (20 mg/kg, 72 hours apart). 48 hours after the second dose, the mice were intravenously injected with ^3H-NST200 (10 μCi/animal). Four hours later, tumors were collected, weighed and the tissue was processed: tumor lysis was performed using SOLVABLE™ reagent (GNE9100, Packard Bioscience) in a ratio of one ml reagent per 150 mg of tumor tissue at 60° C. in 20 ml scintillation glass vials. Following 2-4 hours, one ml from each tissue extract was transferred to a glass scintillation vial. To reduce color quenching problems, samples were treated with 0.4 ml of 30% H2O2 in the presence of 0.066M EDTA. […] The vials were incubated for 1 hr at RT, and than analyzed in a β-counter (TRI-CARB 2100TR, liquid scintillation analyzer, Packard Bioscience). All samples were measured in triplicates Values of percents of injected dose (% ID/g tissue) were calculated for each sample.

[5] = system: Jurkat cells undergoing apoptosis induced by CD95; assay: Binding of tritium-labeled compounds to cultured Jurkat cells undergoing apoptosis induced by CD95; format: cell-based, human
Description: Cultured Jurkat cells (human adult T cell leukemia cells) were grown in suspension in RPMI medium (Beit-Haemek, Israel), supplemented with 10% fetal calf serum (FCS), 2 mM of L-glutamide, 1 mM of sodium pyruvate, 1 mM HEPES and antibiotics (100 units/ml penicilin; 100 μg/ml streptomycin and 12.5 units/ml of nystatin). Prior to induction of apoptosis, medium was replaced with HBS buffer (10 mM HEPES; 140 mM NaCl, 1 mM CaCl). Apoptosis was then triggered by treatment with CD95 (0.1 ug/10^7 cells/ml). As a result, a marked percentage of the cells became apoptotic. Non-treated cells served as control. Both control cells and apoptotic cells were then incubated for 40 minutes at room temperature followed by 30 minutes on ice with (2 μCi/10^7 cells/0.5 ml) tritium-labeled NST 200 and NST 205.
After washing the cells twice, 1 ml of SOLVABLE™ reagent (GNE9100, Packard Biosciences) was added to the pellet. Following one hour of incubation at 60° C., the extracts were transferred into glass scintillation vials and 10 ml of scintillation liquid (Ultima gold 6013329, Packard Biosciences) was added to each vial. The radioactivity was counted after 1 hour of cooling to room temperature and dark adaptation. The radioactive values were calculated and presented in percents of total added radiolabeled NST 200 and NST 205

[6] = system: colon carcinoma tumor vs other organs; assay: Biodistribution in colon carcinoma tumor bearing mice; format: in vivo, Balb/c male mice; details: doxorubicin treated mice, 4 h after injection, table of FIG. 7
Description: Colon carcinoma model was established in the abdomen of Balb/c male mice, as described in previous example, and ^3H-NST200 (10 μCi) was injected to animals treated with doxorubicin. Four hours later, the animals were sacrificed and various organs/tissues were collected and processed, to determine the accumulation of ^3H-NST200 within them. The uptake in each organ was expressed as % of the injected dose (ID), and the ratio between the uptake in the tumor and other organs was calculated, as shown in the table attached hereto as FIG. 7.

colon carcinoma tumors [7] = assay: Autoradiography of response to chemotherapy in a mouse model of colon carcinoma; format: in vivo, Balb/c male mice; details: 4 h after i.v. injection
Description: Colon carcinoma model was established in the abdomen of Balb/c male mice. At day 12-14 when tumor size was […] in diameter, the uptake of NST200 into tumors was measured following treatment of colon carcinoma tumors with i.v. injection of two doses of doxorubicin (20 mg/kg, 72 hours apart). Fourty-eight hours after the chemotherapy, both the control non-treated and the chemotherapy-treated animals were injected intravenously with and radio-labeled NST200 (80 μCi/animal) Four hours later, the animals were sacrificed. 10 μm frozen sections were prepared, air-dried and exposed to a tritium sensitive film. The film was exposed for a duration of 7 weeks, developed and analyzed by densitometny measurement. Measurement of ^3H-DDC densities in optical density/mm^2, […] was assessed by TINA software. Signals were translated according to a Microscale autoradiography standards and expressed in nCi/mg units.

[8] = system: brain regions of apoptotic/necrotic cell death; assay: Autoradiography of apoptotic damage following middle cerebral artery occlusion in mice; format: in vivo, Balb/C mice
Description: p-MCA was induced through a subtemporal approach in Balb/C mice with an outcome of a pronounced ischemic damage. Twenty-two hours after p-MCA, the animal's neurological score was assessed (from 0-no clinical signs to 3-hemiplegia, circling and catatonia) and radio-labeled NST200 (80 μCi/animal) was intravenously injected for successive 2 h before sacrificing the animals. 10 μm frozen sections were prepared, air-dried and exposed to a tritium sensitive film (Hyperfilm-3h, RPN535B Amersharn-Pharmacia, Eu). The film was exposed for a duration of 7 weeks, developed (GBX Developer & Fixer, Kodak, USA) and analyzed by densitometry measurement. Measurement of ^3H-DDC densities in optical density/mm^2, in the ischemic core vs. the contralateral hemisphere signal was assessed by TINA software. Signals were translated according to a Microscale autoradiography standards (RPN510 Amersham-Pharmacia, Eu) and expressed in nCi/mg units.

[9] = system: kidney regions of apoptotic/necrotic cell death; assay: Autoradiography of rat renal ischemia-reperfusion; format: in vivo, rats
[10] = system: injured regions within the outer medulla of the kidney; assay: Autoradiography in a rat model of radiocontrast-induced acute distal tubular necrosis; format: in vivo, rats; details: 24 h after insult, 1 h after i.v. injection, FIG. 11
Description: Nephropathy with selective medullary hypoxic tubular damage was induced by the combined administration of indomethacin (Sigma Chemical Co.), 10 mg/kg, i.v., N^ωnitro-L-arginine methyl ester (L-NAME, Sigma Chemical Co.), 10 mg/kg, i.v., and radiocontrast agent sodium-iothalamate 80% (Angio-Conray, Mallinckrodt Inc), 6 mL/kg, i.a. Additional rats injected with vehicles served as control. Twenty-four hours after insult, animals, both control and experimental were intravenously injected with 100 μCi of ^3H-NST205 and one hour later kidneys were excised and frozen in liquid nitrogen.

CCCCNS(=O)(=O)c1cccc2c(N(C)C)cccc12 [BDA, n-butyl-dansylamide]
selectivity of binding to apoptotic vs non-apoptotic cells [1]: did not manifest this selectivity

CCCCC(C)(C(=O)O)C(=O)O [NST200]
radio-ligand accumulation in brain vs control non-immunized mouse ([2]; coronal brain sections, 1 h after i.v. injection): excess of radio-ligand accumulation in the whole brain | accumulation at the spinal cord level vs control untreated animal ([2]; longitudinal spinal cord section): impressive accumulation | increase in uptake in tumors after 2 doses of doxorubicin (colon carcinoma tumors [3]; two days after second dose, 4 h after i.v. injection, vs control non-treated tumors): 18.5 fold | mean value of uptake in the treated group ([4]; doxorubicin treated tumors, 48 hr after second dose, 4 h after i.v. injection): 1.28 % ID/gr | mean uptake of treated group relative to mean value of the control group ([4]; doxorubicin treated vs non treated tumors): 12.1 fold | increase in uptake in some treated tumors as compared with the control group ([4]; some chemotherapy-treated tumors): 40-50 fold | uptake in apoptotic cells compared to the non-apoptotic cells ([5]; tritium-labeled compound, CD95-induced apoptosis, FIG. 2A): over 8 fold | ratio of uptake in the tumor vs. all organs [6]: > 1 | uptake in tumors upon induction of cell death via chemotherapy (autoradiography) (colon carcinoma tumors [7]; 48 h after two doses of doxorubicin, FIGS. 5B and C): dramatic increase | uptake in non-treated tumors (autoradiography) (colon carcinoma tumors [7]; control non-treated mice, FIG. 5A): no uptake | targeting of injury within regions of apoptotic/necrotic cell death (autoradiography) ([8]; 22 h after p-MCA, i.v., 2 h, FIG. 9): specificity of targeting the injury | uptake in damaged brain hemisphere compared to the contralateral non-damaged hemisphere ([8]; tritium-labeled compound): markedly higher levels of uptake

CCCCC(CCCF)(C(=O)O)C(=O)O [NST205, 2-butyl-2(3-fluoropropyl)-malonic acid]
targeting of injury within regions of apoptotic/necrotic cell death in ischemic kidney (autoradiography) ([9]; 45 minutes ischemia, 24 hours reperfusion, 1 h after i.v. injection, FIG. 10): specificity of targeting the injury | uptake into contralateral kidney ([9]; contralateral untreated kidney of same animal): no ^3H-NST205 uptake into contralateral kidney | effect of adding caspase inhibitor ZVAD on the higher uptake in apoptotic cells ([5]; CD95, plus ZVAD, FIG. 2B): completely reversed | uptake in apoptotic cells in comparison to the non apoptotic cells ([5]; tritium-labeled compound, CD95-induced apoptosis, FIG. 2B): higher uptake | homing in kidney (autoradiography) [10]: primarily restricted to injured regions within the outer medulla

COc1cccc2c1C(=O)c1c(O)c3c(c(O)c1C2=O)C[C@@](O)(C(=O)CO)C[C@@H]3O[C@H]1C[C@H](N)[C@H](O)[C@H](C)O1 [doxorubicin, reference compound]
increase in tumor volume as compared to control non-treated tumors (colon carcinoma tumors [3]; 2 doses of 20 mg/Kg i.v., 5 days, controls collected 5 days earlier, non-significant): 50%
